Measured values as given in ChEMBL document CHEMBL3259563, “The discovery of potent and selective non-steroidal glucocorticoid receptor modulators, suitable for inhalation” (Bioorg Med Chem Lett, 2014).

test system: Rattus norvegicus; test: Antiinflammatory activity in rat assessed as inhibition of LPS-induced lung edema at 100 ug/kg, administered intratracheally 2 hrs prior to LPS challenge measured after 4 hrs relative to control; type: functional; settings: inhaled or nasal

SMILES | inhibition in vivo at 0.1 mg/kg [%]
CCC(=O)O[C@]1(C(=O)SCF)[C@H](C)C[C@H]2[C@@H]3C[C@H](F)C4=CC(=O)C=C[C@]4(C)[C@@]3(F)[C@@H](O)C[C@@]21C [FLUTICASONE PROPIONATE] | 116

target: T1, Glucocorticoid receptor (Homo sapiens, UniProt P04150); test: not given; settings: not given
T1 sequence (P04150 whole entry): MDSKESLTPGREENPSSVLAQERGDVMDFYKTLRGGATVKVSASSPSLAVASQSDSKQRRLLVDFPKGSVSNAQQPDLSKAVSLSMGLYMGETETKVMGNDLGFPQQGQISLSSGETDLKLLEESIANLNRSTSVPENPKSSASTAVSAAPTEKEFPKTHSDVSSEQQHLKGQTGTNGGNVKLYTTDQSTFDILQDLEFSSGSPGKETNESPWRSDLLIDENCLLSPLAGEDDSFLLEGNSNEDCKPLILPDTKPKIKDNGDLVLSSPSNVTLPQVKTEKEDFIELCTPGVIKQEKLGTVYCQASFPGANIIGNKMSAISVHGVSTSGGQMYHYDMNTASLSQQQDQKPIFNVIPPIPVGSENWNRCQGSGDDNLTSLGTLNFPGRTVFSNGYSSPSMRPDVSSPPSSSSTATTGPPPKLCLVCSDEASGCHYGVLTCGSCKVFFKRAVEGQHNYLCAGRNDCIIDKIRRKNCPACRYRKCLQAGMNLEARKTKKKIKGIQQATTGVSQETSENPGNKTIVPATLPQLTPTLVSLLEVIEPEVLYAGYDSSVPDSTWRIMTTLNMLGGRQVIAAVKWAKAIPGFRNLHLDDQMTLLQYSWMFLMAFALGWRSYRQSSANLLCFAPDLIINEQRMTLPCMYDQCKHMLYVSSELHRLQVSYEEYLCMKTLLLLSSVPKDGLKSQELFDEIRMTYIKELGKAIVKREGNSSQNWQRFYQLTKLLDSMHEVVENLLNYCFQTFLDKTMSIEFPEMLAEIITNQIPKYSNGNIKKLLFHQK

SMILES | IC50 [nM]
Cc1cc(C)c(S(=O)(=O)N[C@@H](C)CNc2cccc3nc(C)ccc23)c(C)c1 | 160
Cc1cc(C)c(S(=O)(=O)N[C@@H](C)CNc2cccc3c2cnn3-c2ccc(Cl)cc2)c(C)c1 | 3.4
Cc1cc(C)c(S(=O)(=O)N[C@@H](C)CNc2ccc3cnccc3c2)c(C)c1 | 10000
Cc1nn(C2CCCC2)c(C)c1S(=O)(=O)N[C@@H](C)COc1cccc2cnccc12 | 32
C[C@@H](COc1cccc2ncccc12)NS(=O)(=O)c1c(Cl)cc(Cl)cc1Cl | 80
Cc1cc(C)c(S(=O)(=O)N[C@@H](C)COc2cccc3cnccc23)c(C)c1 | 18
Cc1cc(C)c(S(=O)(=O)NC(C)CSc2cccc3c2cnn3-c2ccc(F)cc2)c(C)c1 (racemic) | 7.7
Cc1cc(C)c(S(=O)(=O)N[C@@H](C)COc2c(C)cccc2C)c(C)c1 | 85
Cc1ccc(S(=O)(=O)N[C@@H](C)COc2cccc3cnccc23)c(C)c1 | 410
Cc1cc(C)c(S(=O)(=O)N[C@@H](C)COc2cccc3ncccc23)c(C)c1 | 240
Cc1ccc(S(=O)(=O)N[C@@H](C)COc2cccc3ncccc23)c(C)c1 | 1600
C[C@@H](COc1cccc2ncccc12)NS(=O)(=O)c1cccc(C#N)c1 | 1800
Cc1cc(C)c(S(=O)(=O)N[C@@H](C)CNc2cccc3c2cnn3-c2ccc(F)c(C)c2)c(C)c1 | 4.1
Cc1cc(C)c(S(=O)(=O)N[C@@H](C)CNc2ccc3ncccc3c2)c(C)c1 | 10000
C[C@@H](COc1cccc2ncccc12)NS(=O)(=O)c1ccccc1 | > 10000
Cc1cc(Cl)cc(Cl)c1S(=O)(=O)N[C@@H](C)COc1cccc2ncccc12 | 220
C[C@@H](COc1cccc2ncccc12)NS(=O)(=O)c1ccccc1C#N | > 10000
Cc1cc(C)c(S(=O)(=O)NC(COc2cccc3c2cnn3-c2ccc(F)cc2)C(F)(F)F)c(C)c1 (racemic) | 3.8
Cc1cc(C)c(S(=O)(=O)N[C@@H](C)CCc2ccccc2)c(C)c1 | 55
Cc1cc(C)c(S(=O)(=O)N[C@H](CNc2cccc3c2cnn3-c2ccc(F)cc2)C(C)C)c(C)c1 | 35
Cc1cc(C)c(S(=O)(=O)N[C@@H](C)CNc2cccc3c2cnn3-c2cncnc2)c(C)c1 | 5.3
COc1ccccc1S(=O)(=O)N[C@@H](C)COc1cccc2ncccc12 | > 10000

target: T1, Glucocorticoid receptor; test: not given; settings: not given; remark: another data set of the same source

SMILES | IC50 [nM]
Cc1cc(C)c(S(=O)(=O)N[C@@H](C)CNc2cccc3c2cnn3-c2ccc(Cl)cc2)c(C)c1 | 13
Cc1cc(C)c(S(=O)(=O)N[C@@H](C)CNc2cccc3c2cnn3-c2ccccc2)c(C)c1 | 1.6
Cc1cc(C)c(S(=O)(=O)N[C@@H](C)CNc2cccc3c2cnn3-c2cccnc2)c(C)c1 | 2
Cc1cc(C)c(S(=O)(=O)N[C@@H](C)CNc2cccc3c2cnn3-c2ccc(F)nc2)c(C)c1 | 23
Cc1nn(C2CCCC2)c(C)c1S(=O)(=O)N[C@@H](C)CNc1cccc2c1cnn2-c1ccc(C#N)cc1 | 13
Cc1ccc(-n2ncc3c(NC[C@H](C)NS(=O)(=O)c4c(C)cc(C)cc4C)cccc32)cc1 | 12
Cc1cccc(-n2ncc3c(NC[C@H](C)NS(=O)(=O)c4c(C)cc(C)cc4C)cccc32)c1 | 8.8
Cc1cc(C)c(S(=O)(=O)N[C@@H](C)CCc2cccc3c2cnn3-c2ccc(F)cc2)c(C)c1 | 12
Cc1cc(C)c(S(=O)(=O)N[C@@H](C)CNc2cccc3c2cnn3-c2ccc(F)c(C)c2)c(C)c1 | 23
Cc1cc(C)c(S(=O)(=O)N[C@@H](C)CNc2cccc3c2cnn3-c2cccc(F)c2)c(C)c1 | 28
Cc1cc(C)c(S(=O)(=O)NC(COc2cccc3c2cnn3-c2ccc(F)cc2)C(F)(F)F)c(C)c1 (racemic) | 36
Cc1cc(C)c(S(=O)(=O)N[C@H](CNc2cccc3c2cnn3-c2ccc(F)cc2)C(C)C)c(C)c1 | 2.1
Cc1cc(C)c(S(=O)(=O)N[C@@H](C)CNc2cccc3c2cnn3-c2cncnc2)c(C)c1 | 8.1

test system: Rattus norvegicus; test: Antiinflammatory activity in rat assessed as inhibition of LPS-induced leukocyte influx to broncho-alveolar lavage fluid at 10 ug/kg, administered intratracheally 2 hrs prior to LPS challenge measured after 4 hrs relative to control; type: functional; settings: inhaled or nasal

SMILES | inhibition in vivo at 0.01 mg/kg [%]
CCC(=O)O[C@]1(C(=O)SCF)[C@H](C)C[C@H]2[C@@H]3C[C@H](F)C4=CC(=O)C=C[C@]4(C)[C@@]3(F)[C@@H](O)C[C@@]21C [FLUTICASONE PROPIONATE] | 84

test system: not listed separately; test: Lipophilicity, log D of the compound at pH 7.4; type: physicochemical; settings: buffer

SMILES | logD
Cc1nn(C2CCCC2)c(C)c1S(=O)(=O)N[C@@H](C)COc1cccc2cnccc12 | 3.5
Cc1cc(C)c(S(=O)(=O)N[C@@H](C)COc2cccc3cnccc23)c(C)c1 | 4.1

test system: Rattus norvegicus; test: Antiinflammatory activity in rat assessed as inhibition of LPS-induced lung edema at 30 ug/kg, administered intratracheally 2 hrs prior to LPS challenge measured after 4 hrs relative to control; type: functional; settings: inhaled or nasal

SMILES | inhibition in vivo at 0.03 mg/kg [%]
CCC(=O)O[C@]1(C(=O)SCF)[C@H](C)C[C@H]2[C@@H]3C[C@H](F)C4=CC(=O)C=C[C@]4(C)[C@@]3(F)[C@@H](O)C[C@@]21C [FLUTICASONE PROPIONATE] | 78

test system: Rattus norvegicus; test: Antiinflammatory activity in rat assessed as inhibition of LPS-induced leukocyte influx to broncho-alveolar lavage fluid at 30 ug/kg, administered intratracheally 2 hrs prior to LPS challenge measured after 4 hrs relative to control; type: functional; settings: inhaled or nasal

SMILES | inhibition in vivo at 0.03 mg/kg [%]
CCC(=O)O[C@]1(C(=O)SCF)[C@H](C)C[C@H]2[C@@H]3C[C@H](F)C4=CC(=O)C=C[C@]4(C)[C@@]3(F)[C@@H](O)C[C@@]21C [FLUTICASONE PROPIONATE] | 92

target: T1, Glucocorticoid receptor; test: not given; settings: not given; remark: another data set of the same source

SMILES | IC50 [nM]
Cc1cc(C)c(S(=O)(=O)N[C@@H](C)CNc2cccc3nc(C)ccc23)c(C)c1 | 2200
Cc1cc(C)c(S(=O)(=O)N[C@@H](C)CNc2cccc3c2cnn3-c2ccc(Cl)cc2)c(C)c1 | 3.7
Cc1cc(C)c(S(=O)(=O)N[C@@H](C)CNc2cccc3c2cnn3-c2ccccc2)c(C)c1 | 1.5
Cc1nn(C2CCCC2)c(C)c1S(=O)(=O)N[C@@H](C)CNc1cccc2c1cnn2-c1ccc(F)cc1 | 9.7
Cc1cc(C)c(S(=O)(=O)N[C@@H](C)CNc2cccc3c2cnn3-c2cccnc2)c(C)c1 | 2.6
Cc1cc(C)c(S(=O)(=O)N[C@@H](C)CNc2ccc(C)c3ncccc23)c(C)c1 | 1100
C[C@@H](COc1cccc2ncccc12)NS(=O)(=O)c1c(Cl)cc(Cl)cc1Cl | 2400
Cc1cc(C)c(S(=O)(=O)N[C@@H](C)CNc2cccc3[nH]ncc23)c(C)c1 | 760
Cc1cc(C)c(S(=O)(=O)N[C@@H](C)COc2cccc3ncccc23)c(C)c1 | 960
Cc1nn(C2CCCC2)c(C)c1S(=O)(=O)N[C@@H](C)CNc1cccc2c1cnn2-c1ccc(C#N)cc1 | 16
Cc1ccc(-n2ncc3c(NC[C@H](C)NS(=O)(=O)c4c(C)cc(C)cc4C)cccc32)cc1 | 4.5
Cc1cccc(-n2ncc3c(NC[C@H](C)NS(=O)(=O)c4c(C)cc(C)cc4C)cccc32)c1 | 6.6
Cc1cc(C)c(S(=O)(=O)N[C@@H](C)CCc2cccc3c2cnn3-c2ccc(F)cc2)c(C)c1 | 23
Cc1cc(C)c(S(=O)(=O)N[C@@H](C)CNc2cccc3c2cnn3-c2ccc(F)c(C)c2)c(C)c1 | 14
Cc1cc(C)c(S(=O)(=O)N[C@@H](C)CNc2cccc3c2cnn3-c2cccc(F)c2)c(C)c1 | 6.1
Cc1cc(C)c(S(=O)(=O)NC(COc2cccc3c2cnn3-c2ccc(F)cc2)C(F)(F)F)c(C)c1 (racemic) | 14
COc1cccc(-n2ncc3c(NC[C@H](C)NS(=O)(=O)c4c(C)cc(C)cc4C)cccc32)c1 | 41
Cc1cc(C)c(S(=O)(=O)N[C@H](CNc2cccc3c2cnn3-c2ccc(F)cc2)C(C)C)c(C)c1 | 12
Cc1cc(C)c(S(=O)(=O)N[C@@H](C)CNc2cccc3ncccc23)c(C)c1 | 1800
Cc1cc(C)c(S(=O)(=O)N[C@@H](C)CNc2cccc3c2cnn3-c2cncnc2)c(C)c1 | 6.9
Cc1nn(C2CCCC2)c(C)c1S(=O)(=O)N[C@@H](C)CNc1cccc2c1cnn2-c1cncnc1 | 43

test system: Rattus norvegicus; test: Antiinflammatory activity in rat assessed as inhibition of LPS-induced lung edema at 10 ug/kg, administered intratracheally 2 hrs prior to LPS challenge measured after 4 hrs relative to control; type: functional; settings: inhaled or nasal

SMILES | inhibition in vivo at 0.01 mg/kg [%]
CCC(=O)O[C@]1(C(=O)SCF)[C@H](C)C[C@H]2[C@@H]3C[C@H](F)C4=CC(=O)C=C[C@]4(C)[C@@]3(F)[C@@H](O)C[C@@]21C [FLUTICASONE PROPIONATE] | 64

test system: Mus musculus; test: Antiinflammatory activity in mouse acute cigarette smoke model assessed as inhibition of neutrophil influx to broncho-alveolar lavage fluid at 30 ug/kg, administered intratracheally 30 mins prior to first cigarette smoke challenge every day for 4 days measured after 24 hrs post last cigarette smoke challenge relative to control; settings: inhaled or nasal

SMILES | inhibition in vivo at 0.03 mg/kg [%]
CCC(=O)O[C@]1(C(=O)SCF)[C@H](C)C[C@H]2[C@@H]3C[C@H](F)C4=CC(=O)C=C[C@]4(C)[C@@]3(F)[C@@H](O)C[C@@]21C [FLUTICASONE PROPIONATE] | 0

test system: Rattus norvegicus; test: Antiinflammatory activity in rat assessed as inhibition of LPS-induced leukocyte influx to broncho-alveolar lavage fluid at 100 ug/kg, administered intratracheally 2 hrs prior to LPS challenge measured after 4 hrs relative to control; type: functional; settings: inhaled or nasal

SMILES | inhibition in vivo at 0.1 mg/kg [%]
CCC(=O)O[C@]1(C(=O)SCF)[C@H](C)C[C@H]2[C@@H]3C[C@H](F)C4=CC(=O)C=C[C@]4(C)[C@@]3(F)[C@@H](O)C[C@@]21C [FLUTICASONE PROPIONATE] | 94
